Laboratory results as given in the supplement of paper PMC10307832.

How the values were obtained:
Test in all cases: relative viability (nuclei count vs DMSO), 5 days (fraction); higher = more cells survive
GSK-J4 + Foretinib = compound: CCOC(=O)CCNc1cc(N2CCc3ccccc3CC2)nc(-c2ccccn2)n1 [GSK-J4] + COc1cc2c(Oc3ccc(NC(=O)C4(C(=O)Nc5ccc(F)cc5)CC4)cc3F)ccnc2cc1OCCCN1CCOCC1 [Foretinib] (partner 0.25 µM)
How it was run: (§1)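 Five library-drug doses in √10 steps were combined with a fixed anchor-drug dose, or a single drug was given alone, by pin tool to lung cancer cell lines in 1536-well plates the day after seeding. Nuclei were stained and counted after 5 days. Relative viability is the nuclei count in treated wells over that in vehicle wells, taken as the median of duplicate plates.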

GSK-J4 + Pictilisib = compound: CCOC(=O)CCNc1cc(N2CCc3ccccc3CC2)nc(-c2ccccn2)n1 [GSK-J4] + CS(=O)(=O)N1CCN(Cc2cc3nc(-c4cccc5[nH]ncc45)nc(N4CCOCC4)c3s2)CC1 [Pictilisib] (partner 1 µM)
How it was run: as §1

AZ3146 + Tozasertib = compound: CN1CCC(CC1)OC2=CC(=C(C=C2)NC3=NC=C4C(=N3)N(C(=O)N4C)C5CCCC5)OC [AZ3146] + Cc1cc(Nc2cc(N3CCN(C)CC3)nc(Sc3ccc(NC(=O)C4CC4)cc3)n2)n[nH]1 [Tozasertib] (partner 0.1 µM)
How it was run: as §1

AZ3146 + Olaparib = compound: CN1CCC(CC1)OC2=CC(=C(C=C2)NC3=NC=C4C(=N3)N(C(=O)N4C)C5CCCC5)OC [AZ3146] + O=C(c1cc(Cc2n[nH]c(=O)c3ccccc23)ccc1F)N1CCN(C(=O)C2CC2)CC1 [Olaparib] (partner 8 µM)
How it was run: as §1

Cell Line | relative viability (GSK-J4 + Foretinib; first compound 0.5 µM) | relative viability (GSK-J4 + Foretinib; first compound 1.581 µM) | relative viability (GSK-J4 + Foretinib; first compound 5 µM) | relative viability (GSK-J4 + Foretinib; first compound 15.81 µM) | relative viability (GSK-J4 + Foretinib; first compound 50 µM) | relative viability (GSK-J4 + Pictilisib; first compound 0.5 µM) | relative viability (GSK-J4 + Pictilisib; first compound 1.581 µM) | relative viability (GSK-J4 + Pictilisib; first compound 5 µM) | relative viability (GSK-J4 + Pictilisib; first compound 15.81 µM) | relative viability (GSK-J4 + Pictilisib; first compound 50 µM) | relative viability (AZ3146 + Tozasertib; first compound 0.08 µM) | relative viability (AZ3146 + Tozasertib; first compound 0.253 µM) | relative viability (AZ3146 + Tozasertib; first compound 0.8 µM) | relative viability (AZ3146 + Tozasertib; first compound 2.53 µM) | relative viability (AZ3146 + Tozasertib; first compound 8 µM) | relative viability (AZ3146 + Olaparib; first compound 0.08 µM) | relative viability (AZ3146 + Olaparib; first compound 0.253 µM) | relative viability (AZ3146 + Olaparib; first compound 0.8 µM) | relative viability (AZ3146 + Olaparib; first compound 2.53 µM) | relative viability (AZ3146 + Olaparib; first compound 8 µM)
NCI-H1650 | 1.07 | 0.456 | 1.18 | 1.03 | 0.949 | 0.644 | 0.258 | 0.622 | 0.533 | 0.291 | 0.345 | 0.349 | 0.242 | 0.314 | 0.255 | 0.857 | 0.722 | 0.752 | 0.736 | 0.621
NCI-H596 | 0.928 | 0.657 | 0.892 | 0.673 | 0.823 | 0.417 | 0.428 | 0.365 | 0.431 | 0.369 | 0.949 | 0.972 | 0.979 | 0.728 | 0.524 | 0.677 | 0.738 | 0.752 | 0.77 | 0.765
NCI-H1734 | 0.821 | 0.787 | 0.849 | 0.707 | 0.619 | 0.464 | 0.508 | 0.401 | 0.426 | 0.341 | 0.225 | 0.264 | 0.279 | 0.275 | 0.29 | 0.58 | 0.61 | 0.632 | 0.607 | 0.612
NCI-H1915 | 1.04 | 1.03 |  | 1.06 | 0.523 | 0.905 | 0.774 | 0.901 | 0.962 | 1.03 | 0.409 | 0.483 | 0.367 | 0.381 | 0.351 | 0.24 | 0.283 | 0.271 | 0.277 | 0.312
NCI-H838 | 1.03 | 1.02 |  | 0.853 | 0.738 | 0.624 | 0.407 |  | 0.467 | 0.433 | 0.249 | 0.252 | 0.254 | 0.263 | 0.183 | 0.771 | 0.769 | 0.766 | 0.724 | 0.253
HCC-15 | 0.949 |  | 0.898 | 0.854 | 0.69 | 0.743 | 0.353 | 0.784 | 0.666 | 0.473 | 0.374 | 0.426 | 0.263 | 0.221 | 0.102 | 0.618 | 0.737 | 0.726 | 0.725 | 0.648
NCI-H650 | 0.972 | 1.01 | 0.686 | 0.941 | 0.712 | 0.839 | 0.798 | 0.789 | 0.779 | 0.468 | 0.491 | 0.769 | 0.75 | 0.794 | 0.509 | 0.271 | 0.361 | 0.385 | 0.46 | 0.413
NCI-H1651 | 0.765 | 0.905 | 0.922 | 0.663 | 0.8 | 0.578 | 0.416 | 0.668 | 0.639 | 0.389 | 0.597 | 0.793 | 0.465 | 0.552 | 0.297 | 0.191 | 0.185 | 0.2 | 0.214 | 0.202
NCI-H2405 | 1.06 | 0.948 |  | 0.98 | 1.04 | 0.465 | 0.713 |  | 0.708 | 0.475 | 0.609 | 0.784 | 0.63 | 0.577 | 0.397 | 0.827 | 0.881 | 0.933 | 0.925 | 0.818
LU99A | 0.731 | 0.78 |  | 0.809 | 0.523 | 0.277 | 0.276 | 0.292 | 0.346 | 0.219 | 0.279 | 0.269 | 0.248 | 0.238 | 0.245 |  | 0.26 | 0.24 | 0.271 | 0.257
H3255 | 0.856 | 0.85 | 0.846 | 0.844 | 0.804 | 0.415 | 0.414 | 0.498 | 0.412 | 0.424 | 0.598 | 0.475 | 0.61 | 0.646 | 0.196 | 0.498 | 0.526 | 0.605 | 0.564 | 0.564
